# Experimental data published in the supplement of paper PMC11451515.
# Test system: SEM cells
# Assay: cell viability relative to DMSO control; higher = less cytotoxic
# Conditions: 48 h
# Summary of the method: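 Three leukemia lines were tested: NOMO1 and SEM at 500 cells/well and P12-Ichikawa at 1000 cells/well. Each was adapted for at least four passages in each medium and seeded in 5 μl in 1536-well plates, and library compounds in DMSO were pin-dosed from 47 μM to 0.79 nM in 11 threefold steps. After 48 h at 37°C, CellTiter-Glo One luminescence was read. Viability is a percentage relative to DMSO wells on each plate, with cell-free wells as background.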
# [1] = HPLM + 10% dialyzed FBS, 0.000781 µM
# [2] = HPLM + 10% dialyzed FBS, 0.00234 µM
# [3] = HPLM + 10% dialyzed FBS, 0.00702 µM
# [4] = HPLM + 10% dialyzed FBS, 0.0211 µM
# [5] = HPLM + 10% dialyzed FBS, 0.0632 µM
# [6] = HPLM + 10% dialyzed FBS, 0.19 µM
# [7] = HPLM + 10% dialyzed FBS, 0.569 µM
# [8] = HPLM + 10% dialyzed FBS, 1.71 µM
# [9] = HPLM + 10% dialyzed FBS, 5.12 µM
# [10] = HPLM + 10% dialyzed FBS, 15.4 µM
# [11] = HPLM + 10% dialyzed FBS, 46.1 µM
# [12] = RPMI 5 mM glucose + 10% FBS, 0.000781 µM
# [13] = RPMI 5 mM glucose + 10% FBS, 0.00234 µM
# [14] = RPMI 5 mM glucose + 10% FBS, 0.00702 µM
# [15] = RPMI 5 mM glucose + 10% FBS, 0.0211 µM
# [16] = RPMI 5 mM glucose + 10% FBS, 0.0632 µM
# [17] = RPMI 5 mM glucose + 10% FBS, 0.19 µM
# [18] = RPMI 5 mM glucose + 10% FBS, 0.569 µM
# [19] = RPMI 5 mM glucose + 10% FBS, 1.71 µM
# [20] = RPMI 5 mM glucose + 10% FBS, 5.12 µM
# [21] = RPMI 5 mM glucose + 10% FBS, 15.4 µM
# [22] = RPMI 5 mM glucose + 10% FBS, 46.1 µM
# [23] = RPMI 5 mM glucose + 10% dialyzed FBS, 0.000781 µM
# [24] = RPMI 5 mM glucose + 10% dialyzed FBS, 0.00234 µM
# [25] = RPMI 5 mM glucose + 10% dialyzed FBS, 0.00702 µM
# [26] = RPMI 5 mM glucose + 10% dialyzed FBS, 0.0211 µM
# [27] = RPMI 5 mM glucose + 10% dialyzed FBS, 0.0632 µM
# [28] = RPMI 5 mM glucose + 10% dialyzed FBS, 0.19 µM
# [29] = RPMI 5 mM glucose + 10% dialyzed FBS, 0.569 µM
# [30] = RPMI 5 mM glucose + 10% dialyzed FBS, 1.71 µM
# [31] = RPMI 5 mM glucose + 10% dialyzed FBS, 5.12 µM
# [32] = RPMI 5 mM glucose + 10% dialyzed FBS, 15.4 µM
# [33] = RPMI 5 mM glucose + 10% dialyzed FBS, 46.1 µM
structure (smiles),measurement,setting,value
COC(=O)Nc1nc2cc(C(=O)c3cccs3)ccc2[nH]1,cell viability,[1],102%
same,cell viability,[2],71.5%
same,cell viability,[3],94.1%
same,cell viability,[4],48.1%
same,cell viability,[5],28.1%
same,cell viability,[6],30.4%
same,cell viability,[7],24.9%
same,cell viability,[8],28%
same,cell viability,[9],25.8%
same,cell viability,[10],28.9%
same,cell viability,[11],19.8%
same,cell viability,[12],95.6%
same,cell viability,[13],46.7%
same,cell viability,[14],88%
same,cell viability,[15],37%
same,cell viability,[16],15.3%
same,cell viability,[17],15.1%
same,cell viability,[18],17.5%
same,cell viability,[19],14.8%
same,cell viability,[20],13.9%
same,cell viability,[21],14.3%
same,cell viability,[22],14.2%
same,cell viability,[23],111%
same,cell viability,[24],69%
same,cell viability,[25],94.4%
same,cell viability,[26],51.8%
same,cell viability,[27],24.7%
same,cell viability,[28],25.5%
same,cell viability,[29],22.3%
same,cell viability,[30],27.2%
same,cell viability,[31],26%
same,cell viability,[32],26.6%
same,cell viability,[33],22.2%
CC1=NN(c2ccc(C)c(C)c2)C(=O)/C1=N/Nc1cccc(-c2cccc(C(=O)O)c2)c1O,cell viability,[1],121%
same,cell viability,[2],119%
same,cell viability,[3],125%
same,cell viability,[4],128%
same,cell viability,[5],111%
same,cell viability,[6],117%
same,cell viability,[7],120%
same,cell viability,[8],119%
same,cell viability,[9],109%
same,cell viability,[10],97.6%
same,cell viability,[11],75.3%
same,cell viability,[12],124%
same,cell viability,[13],122%
same,cell viability,[14],128%
same,cell viability,[15],130%
same,cell viability,[16],129%
same,cell viability,[17],122%
same,cell viability,[18],123%
same,cell viability,[19],122%
same,cell viability,[20],121%
same,cell viability,[21],90.4%
same,cell viability,[22],54.7%
NC[C@H]1CC[C@H](C(=O)O)CC1,cell viability,[1],58.2%
same,cell viability,[2],128%
same,cell viability,[3],113%
same,cell viability,[4],111%
same,cell viability,[5],119%
same,cell viability,[6],131%
same,cell viability,[7],123%
same,cell viability,[8],124%
same,cell viability,[9],113%
same,cell viability,[10],111%
same,cell viability,[11],104%
same,cell viability,[23],56.4%
same,cell viability,[24],110%
same,cell viability,[25],106%
same,cell viability,[26],126%
same,cell viability,[27],106%
same,cell viability,[28],104%
same,cell viability,[29],99.9%
same,cell viability,[30],116%
same,cell viability,[31],99.7%
same,cell viability,[32],102%
same,cell viability,[33],92.7%
ClC1=C(N\C2=N\CCN2)C3=NSN=C3C=C1,cell viability,[1],77.6%
same,cell viability,[2],91.6%
same,cell viability,[3],107%
same,cell viability,[4],69.7%
same,cell viability,[5],97.8%
same,cell viability,[6],105%
same,cell viability,[7],102%
same,cell viability,[8],111%
same,cell viability,[9],115%
same,cell viability,[10],116%
same,cell viability,[11],113%
same,cell viability,[12],93.7%
same,cell viability,[13],111%
same,cell viability,[14],115%
same,cell viability,[15],74.6%
same,cell viability,[16],121%
same,cell viability,[17],114%
same,cell viability,[18],114%
same,cell viability,[19],109%
same,cell viability,[20],117%
same,cell viability,[21],126%
same,cell viability,[22],126%
same,cell viability,[23],94.2%
same,cell viability,[24],105%
same,cell viability,[25],110%
same,cell viability,[26],69.1%
same,cell viability,[27],120%
same,cell viability,[28],122%
same,cell viability,[29],129%
same,cell viability,[30],121%
same,cell viability,[31],118%
same,cell viability,[32],137%
same,cell viability,[33],137%
C=C(C)[C@@H]1CC[C@]2(C(=O)O)CC[C@]3(C)[C@H](CC[C@@H]4[C@@]5(C)CC[C@H](O)C(C)(C)[C@@H]5CC[C@]43C)[C@@H]12,cell viability,[12],115%
same,cell viability,[13],116%
same,cell viability,[14],134%
same,cell viability,[15],129%
same,cell viability,[16],140%
same,cell viability,[17],52.4%
same,cell viability,[18],128%
same,cell viability,[19],123%
same,cell viability,[20],42.7%
same,cell viability,[21],112%
same,cell viability,[22],107%
Cl.Cl.Cl.O[C@@H](COc1cccc2ncccc12)CN1CCN([C@@H]2c3ccccc3[C@@H]3[C@H](c4ccccc42)C3(F)F)CC1,cell viability,[1],88.2%
same,cell viability,[2],103%
same,cell viability,[3],82.3%
same,cell viability,[4],83.8%
same,cell viability,[5],105%
same,cell viability,[6],90%
same,cell viability,[7],84.5%
same,cell viability,[8],89.6%
same,cell viability,[9],91.9%
same,cell viability,[10],71.2%
same,cell viability,[11],73.4%
same,cell viability,[12],89.3%
same,cell viability,[13],100%
same,cell viability,[14],75.7%
same,cell viability,[15],95.7%
same,cell viability,[16],98.6%
same,cell viability,[17],82.6%
same,cell viability,[18],86.2%
same,cell viability,[19],94.5%
same,cell viability,[20],100%
same,cell viability,[21],97.3%
same,cell viability,[22],3.4%
same,cell viability,[23],94.1%
same,cell viability,[24],92.1%
same,cell viability,[25],85.7%
same,cell viability,[26],93.9%
same,cell viability,[27],101%
same,cell viability,[28],102%
same,cell viability,[29],86.9%
same,cell viability,[30],106%
same,cell viability,[31],85.3%
same,cell viability,[32],105%
same,cell viability,[33],83.5%
CCC(C)SSc1ncc[nH]1 (stereo not drawn),cell viability,[1],87.4%
same,cell viability,[2],90.2%
same,cell viability,[3],107%
same,cell viability,[4],101%
same,cell viability,[5],91%
same,cell viability,[6],97.5%
same,cell viability,[7],89%
same,cell viability,[8],36.2%
same,cell viability,[9],81.9%
same,cell viability,[10],57.8%
same,cell viability,[11],7.14%
same,cell viability,[12],93.9%
same,cell viability,[13],91.5%
same,cell viability,[14],88.7%
same,cell viability,[15],102%
same,cell viability,[16],92.7%
same,cell viability,[17],109%
same,cell viability,[18],93.8%
same,cell viability,[19],17.7%
same,cell viability,[20],82.9%
same,cell viability,[21],29.9%
same,cell viability,[22],6.98%
same,cell viability,[23],85.7%
same,cell viability,[24],75.8%
same,cell viability,[25],83.2%
same,cell viability,[26],83.9%
same,cell viability,[27],89.8%
same,cell viability,[28],108%
same,cell viability,[29],78.8%
same,cell viability,[30],27.2%
same,cell viability,[31],73.6%
same,cell viability,[32],10.3%
same,cell viability,[33],6.57%
CC(C)NCC(O)COc1ccc(COCCOC(C)C)cc1 (stereo not drawn),cell viability,[1],110%
same,cell viability,[2],115%
same,cell viability,[3],122%
same,cell viability,[4],103%
same,cell viability,[5],124%
same,cell viability,[6],105%
same,cell viability,[7],129%
same,cell viability,[8],132%
same,cell viability,[9],116%
same,cell viability,[10],110%
same,cell viability,[11],118%
same,cell viability,[12],106%
same,cell viability,[13],124%
same,cell viability,[14],130%
same,cell viability,[15],120%
same,cell viability,[16],132%
same,cell viability,[17],118%
same,cell viability,[18],109%
same,cell viability,[19],123%
same,cell viability,[20],121%
same,cell viability,[21],131%
same,cell viability,[22],105%
same,cell viability,[23],123%
same,cell viability,[24],125%
same,cell viability,[25],124%
same,cell viability,[26],115%
same,cell viability,[27],117%
same,cell viability,[28],129%
same,cell viability,[29],118%
same,cell viability,[30],138%
same,cell viability,[31],106%
same,cell viability,[32],126%
same,cell viability,[33],114%
NC(=O)c1cnc(N[C@@H]2CCCC[C@@H]2N)nc1Nc1cccc(-n2nccn2)c1,cell viability,[1],105%
same,cell viability,[2],103%
same,cell viability,[3],112%
same,cell viability,[4],111%
same,cell viability,[5],130%
same,cell viability,[6],120%
same,cell viability,[7],110%
same,cell viability,[8],123%
same,cell viability,[9],96.5%
same,cell viability,[10],44.3%
same,cell viability,[11],11.6%
same,cell viability,[12],84.8%
same,cell viability,[13],101%
same,cell viability,[14],125%
same,cell viability,[15],135%
same,cell viability,[16],142%
same,cell viability,[17],103%
same,cell viability,[18],125%
same,cell viability,[19],123%
same,cell viability,[20],107%
same,cell viability,[21],40.3%
same,cell viability,[22],10.7%
same,cell viability,[23],122%
same,cell viability,[24],120%
same,cell viability,[25],122%
same,cell viability,[26],146%
same,cell viability,[27],162%
same,cell viability,[28],131%
same,cell viability,[29],148%
same,cell viability,[30],129%
same,cell viability,[31],124%
same,cell viability,[32],58.3%
same,cell viability,[33],34.4%
